Experimental data reported in patent US8673265B2, “Carbonylporphyrins and uses thereof” (Brookhaven Science Associates, LLC, priority 2006, dated 2014).

Columns and labels:
[1] = Weight changes and hematologic parameters in mice; format: in vivo, BALB/c mice
[2] = tested on: EMT-6 mammary carcinomas; test: Biodistribution (boron concentrations in tissues) in mice bearing EMT-6 carcinomas; format: in vivo, BALB/c mice; conditions: for Average boron concentration, Blood / Average boron concentration, Brain / Average boron concentration, Heart / Average boron concentration, Kidneys / Average boron concentration, Liver / Average boron concentration, Skin (pinna) / Average boron concentration, Spleen / Average boron concentration, Tumor / Average boron concentration, Feces / Average boron concentration, Lungs: 3 i.p. injections over 8 hours
Experimental: BALB/c mice bearing subcutaneously implanted EMT-6 mammary carcinomas implanted on the dorsal thorax were given a total dose of 105 milligrams porphyrin compound V per kilogram body weight (23.7 mg B/kg). At one and two days after the last injection, mice were euthanized, and tumor, blood, brain, and liver were removed for boron analyses. The blood was first analyzed for hematologic parameters that indicate toxicity before it was analyzed for boron.
Similar to Example 8, Compound VII was given, to tumor-bearing mice except at a slightly higher total dose of 143 mg/kg body weight in 3 i.p. injections given over a period of 8 hours.

[3] = 105 mg/kg (23.7 mg B/kg), 1 day after last injection
[4] = 105 mg/kg (23.7 mg B/kg), 2 days after last injection
[5] = 143 mg/kg (30 mg B/kg), 1 day after last injection
[6] = 143 mg/kg (30 mg B/kg), 2 days after last injection

## Copper (II) 5,15-dinitro-10,20-bis(3-[o-carboranylmethoxy]phenyl)porphyrin [Porphyrin compound V]
[1]; [3]
  % Weight change: −0.8 ± 1.8%
  Platelet count: 1349 ± 294 m/m^3
  White blood count: 9.9 ± 2.6 m/m^3
[1]; [4]
  % Weight change: −1.7 ± 1.7%
  Platelet count: 515 ± 160 m/m^3
  White blood count: 11.8 ± 1.8 m/m^3
[2]; [3]
  Average boron concentration, Blood: 34.6 ± 26.9 μg B/g
  Average boron concentration, Brain: 0.5 ± 0.4 μg B/g
  Average boron concentration, Heart: 9.1 ± 3.8 μg B/g
  Average boron concentration, Kidneys: 12.7 ± 6.9 μg B/g
  Average boron concentration, Liver: 145 ± 18 μg B/g
  Average boron concentration, Skin (pinna): 3.6 ± 13.0 μg B/g
  Average boron concentration, Spleen: 76.1 ± 8.6 μg B/g
[2]; 105 mg/kg (23.7 mg B/kg), 1 day after last injection, wet tissue
  Average boron concentration, Tumor: 39.2 ± 14.4 μg B/g
[2]; [4]
  Average boron concentration, Blood: 1.5 ± 0.4 μg B/g
  Average boron concentration, Brain: 0.1 ± 0.1 μg B/g
  Average boron concentration, Feces: 15.2 ± 20.8 μg B/g
  Average boron concentration, Heart: 7.5 ± 0.6 μg B/g
  Average boron concentration, Kidneys: 7.1 ± 0.5 μg B/g
  Average boron concentration, Liver: 226 ± 25 μg B/g
  Average boron concentration, Lungs: 8.5 ± 3.0 μg B/g
  Average boron concentration, Skin (pinna): 4.8 ± 1.6 μg B/g
  Average boron concentration, Spleen: 158 ± 19 μg B/g
  Average boron concentration, Tumor: 49.8 ± 12.9 μg B/g
[2]; porphyrin dose ~100 mg/kg (24 mg/kg B)
  amount of boron delivered to the tumor: ~50 ppm
[2]; ~100 mg/kg (24 mg/kg B), EMT-6 tumor model
  percentage of injected dose in tumor per gram of wet tissue: ~10.5 %/g

## copper (II) 5,15-dibromo-10,20-bis(3-[o-carboranylmethoxy]phenyl)porphyrin [Porphyrin compound VII]
[1]; [5]
  % Weight change: −0.3 ± 1.4%
  Platelet count: 1461 ± 229 m/m^3
  White blood count: 8.8 ± 1.3 m/m^3
[1]; [6]
  % Weight change: 0.2 ± 2.2%
  Platelet count: 790 ± 227 m/m^3
  White blood count: 11.8 ± 1.8 m/m^3
[1]; 143 mg/kg dose
  toxicity associated with the porphyrin: little if any toxicity
[2]; [5]
  Average boron concentration, Blood: 105 ± 20 μg B/g
  Average boron concentration, Brain: 1.9 ± 0.5 μg B/g
  Average boron concentration, Feces: 11.2 ± 2.3 μg B/g
  Average boron concentration, Heart: 20.4 ± 4.6 μg B/g
  Average boron concentration, Kidneys: 38.7 ± 7.0 μg B/g
  Average boron concentration, Liver: 183 ± 19 μg B/g
  Average boron concentration, Lungs: 35.8 ± 3.7 μg B/g
  Average boron concentration, Skin (pinna): 9.2 ± 1.8 μg B/g
  Average boron concentration, Spleen: 107 ± 11 μg B/g
  Average boron concentration, Tumor: 67.1 ± 8.5 μg B/g
[2]; [6]
  Average boron concentration, Blood: 12.1 ± 9.7 μg B/g
  Average boron concentration, Brain: 0.1 ± 0.2 μg B/g
  Average boron concentration, Feces: 4.9 ± 0.6 μg B/g
  Average boron concentration, Heart: 9.4 ± 1.1 μg B/g
  Average boron concentration, Kidneys: 13.0 ± 3.6 μg B/g
  Average boron concentration, Liver: 263 ± 34 μg B/g
  Average boron concentration, Lungs: 17.8 ± 6.2 μg B/g
  Average boron concentration, Skin (pinna): 7.7 ± 1.7 μg B/g
  Average boron concentration, Spleen: 160 ± 15 μg B/g
  Average boron concentration, Tumor: 76.9 ± 14.1 μg B/g
